Values quoted from earlier work in patent US8431154B2, “Oral dosage form containing a PDE 4 inhibitor as an active ingredient and polyvinylpyrrolidone as excipient” (Takeda GmbH, priority 2002, dated 2013).

Details: as referred to for U.S. Pat. No. 5,286,494

solubility: solubility is slight
SMILES: COc1ccc(C2CNC(=O)C2)cc1OC1CCCC1 (stereo not shown) [Rolipram]
